Test results as given in publication PMC11335985, “Radiosynthesis and preclinical evaluation of a ^68Ga-labeled tetrahydroisoquinoline-based ligand for PET imaging of C-X-C chemokine receptor type 4 in an animal model of glioblastoma” (EJNMMI Radiopharmacy and Chemistry, 2024).

Biological target: T1, CXCR4 (Homo sapiens, UniProt P61073)
T1 construct: full-length endogenous receptor on intact Jurkat T cells, untagged
Test: inhibition of CXCL12-AF647 binding to intact Jurkat cells, flow cytometry
Assay type: cell-based
Conditions: competition with 2.9 nM CXCL12-AF647; HBSS, 20 mM HEPES, 0.2% BSA, pH 7.4, RT; 15 min preincubation, 30 min with tracer; n = 3; chelator without gallium
Excerpt: inhibition of CXCL12-AF647 binding to intact Jurkat cells, flow cytometry on CXCR4

T1 sequence (P61073 whole entry): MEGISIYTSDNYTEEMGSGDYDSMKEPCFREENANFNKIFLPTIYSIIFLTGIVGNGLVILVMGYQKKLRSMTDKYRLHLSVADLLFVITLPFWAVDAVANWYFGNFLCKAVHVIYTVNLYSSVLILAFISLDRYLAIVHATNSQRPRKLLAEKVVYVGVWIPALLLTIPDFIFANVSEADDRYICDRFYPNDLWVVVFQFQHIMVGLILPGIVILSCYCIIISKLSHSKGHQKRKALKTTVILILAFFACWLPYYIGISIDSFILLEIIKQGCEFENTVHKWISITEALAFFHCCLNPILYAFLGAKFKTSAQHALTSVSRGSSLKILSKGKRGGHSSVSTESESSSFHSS

For `O=C(O)CN1CCN(CC(=O)O)CCN(C(CCC(=O)NCc2ccc(NC(=S)NCCCCN(C[C@H]3Cc4ccccc4CN3)[C@H]3CCCc4cccnc43)cc2)C(=O)O)CCN(CC(=O)O)CC1` (stereo partly shown) [TD-01], the IC50 was 36.5 ± 1.4 nM.
